Experimental data reported in patent publication US20110306597A1, “Nicotinamide Derivatives” (priority 2008, published 2011).

molecular target: human recombinant H-PGDS (Homo sapiens, UniProt O60760); experiment: Fluorescence Intensity h-PGDS TBA Enzyme Assay; format: biochemical; details: 1:175,000 human recombinant H-PGDS, highest inhibitor concentration typically 1 μM
Summary of the method: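 Readout is PGH2 depletion: after a 42 s reaction with 5.0 μM PGH2 and 2.5 mM glutathione (pH 8.0 Tris, 10 min inhibitor preincubation), Fe(II) converts leftover PGH2 to MDA, which forms a fluorescent TBA complex. IC50s come from 11-point, 3-fold duplicate curves, 4-parameter fit.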

Chain of human recombinant H-PGDS (O60760 whole entry): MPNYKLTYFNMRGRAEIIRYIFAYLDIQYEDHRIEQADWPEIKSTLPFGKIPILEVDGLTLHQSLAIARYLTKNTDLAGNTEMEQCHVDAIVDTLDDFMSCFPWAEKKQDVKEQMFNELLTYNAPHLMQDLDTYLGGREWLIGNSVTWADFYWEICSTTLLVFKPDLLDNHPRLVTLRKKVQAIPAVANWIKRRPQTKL

IC50 [nM]	Molecule
1330	COc1ccc(C(CNC(=O)c2ccc(-c3cccc(F)c3)nc2)N2CCOCC2)cc1 (stereo not shown) [Example 190, 6-(3-Fluorophenyl)-N-[2-(4-methoxyphenyl)-2-morpholin-4-ylethyl]nicotinamide]
345	O=C(NCc1cccc(F)c1)c1ccc(-c2ccc(F)cc2)nc1 [Example 465, N-(3-Fluorobenzyl)-6-(4-fluorophenyl)nicotinamide]
174	N-[2-(Benzyloxy)ethyl]-5-chloro-6-(3-fluorophenyl)nicotinamide [Example 555]
3.34	Cc1ccc2c(c1C)OCCC2NC(=O)c1ccc(-c2cccc(F)c2)nc1 (stereo not shown) [Example 531, N-(7,8-Dimethyl-3,4-dihydro-2H-chromen-4-yl)-6-(3-fluorophenyl)nicotinamide]
95.2	NC(CC(=O)NC(=O)c1ccc(-c2cccc(F)c2)nc1)C1CC1 (stereo not shown) [Example 444, N-(3-Amino-3-cyclopropylpropanoyl)-6-(3-fluorophenyl) nicotinamide]
20.1	CCC1CCN(CCNC(=O)c2ccc(-c3ccccc3)nc2)CC1 [Example 371, N-[2-(4-Ethylpiperidin-1-yl)ethyl]-6-phenylnicotinamide]
40.9	O=C(NCc1ccco1)c1ccc(-c2cccc(F)c2)nc1 [Example 428, 6-(3-Fluorophenyl)-N-(2-furylmethyl)nicotinamide]
2.72	COc1cccc(CNC(=O)c2ccc(-c3cccc(F)c3)nc2)c1OC [Example 33, N-(2,3-Dimethoxybenzyl)-6-(3-fluorophenyl)nicotinamide]
25.7	N#CC(NC(=O)c1ccc(-c2cccc(F)c2)nc1)c1ccccc1 (stereo not shown) [Example 8, N-[Cyano(phenyl)methyl]-6-(3-fluorophenyl)nicotinamide]
≥ 1000	CC(C)NC(=O)c1ccc(-c2ccc(F)cc2)nc1 [Example 503, 6-(4-Fluorophenyl)-N-isopropylnicotinamide]
9.13	Cc1cccc(-c2ccc(C(=O)NCc3nnc(-c4cccnc4)[nH]3)cn2)c1 [Example 448, 6-(3-Methylphenyl)-N-[(5-pyridin-3-yl-4H-1,2,4-triazol-3-yl)methyl]nicotinamide]
211	COc1cccc(-c2ccc(C(=O)NCC(C)(C)N3CCOCC3)cn2)c1 [Example 279, 6-(3-Methoxyphenyl)-N-(2-methyl-2-morpholin-4-ylpropyl)nicotinamide]
38.8	Cc1cc(=O)[nH]c(NCCNC(=O)c2ccc(-c3cccc(F)c3)nc2)n1 [Example 7, 6-(3-Fluorophenyl)-N-{2-[(4-methyl-6-oxo-1,6-dihydropyrimidin-2-yl)amino]ethyl}nicotinamide]
99.9	COc1ccc(C(NC(=O)c2ccc(-c3cccc(F)c3)nc2)C2CC2)cc1 (stereo not shown) [Example 202, N-[Cyclopropyl(4-methoxyphenyl)methyl]-6-(3-fluorophenyl)nicotinamide]
54.7	COc1cc(CNC(=O)c2cnc(-c3cccc(F)c3)c(Cl)c2)cc2c1OCCO2 [Example 548, 5-Chloro-6-(3-fluorophenyl)-N-[(8-methoxy-2,3-dihydro-1,4-benzodioxin-6-yl)methyl]nicotinamide]
20.5	CC(C)NC(=O)c1ccc(-c2cccc(F)c2)nc1 [Example 179, 6-(3-Fluorophenyl)-N-isopropylnicotinamide]
20.8	COC(=O)CNC(=O)[C@H](C)NC(=O)c1ccc(-c2cccc(F)c2)nc1 [Example 165, Methyl N-{[6-(3-fluorophenyl)pyridin-3-yl]carbonyl}-L-alanylglycinate]
73.4	CCOCC(O)CNC(=O)c1ccc(-c2cccc(F)c2)nc1 (stereo not shown) [Example 34, N-(3-Ethoxy-2-hydroxypropyl)-6-(3-fluorophenyl)nicotinamide]
31.1	O=C(NCCN1CCC(O)CC1)c1ccc(-c2cccc(F)c2)nc1 [Example 32, 6-(3-Fluorophenyl)-N-[2-(4-hydroxypiperidin-1-yl)ethyl]nicotinamide]
